Results reported in the supplement of paper PMC10307832.

Tests used:
Test in all cases: relative viability (nuclei count vs DMSO), 5 days (fraction); higher = more cells survive
201T = system: 201T
Outline: (§1)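 Lung cancer cell lines were seeded in 1536-well plates and dosed by pin tool the next day, with either a single drug or a fixed anchor-drug dose combined with five library-drug doses (not always all listed) spaced in √10 steps. Five days later, one step fixed the cells and stained their nuclei (final 0.05% Triton X-100, 1% formaldehyde, 1 ug/ml Hoechst), and nuclei were counted on 4× images. Relative viability is the nuclei count in treated wells divided by the count in vehicle wells, and each value is the median of duplicate plates.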

A-427 = system: A-427
Outline: as §1

COR-L23 = system: COR-L23
Outline: as §1

HARA = system: HARA
Outline: as §1

HCC-78 = system: HCC-78
Outline: as §1

LCLC-103H = system: LCLC-103H
Outline: as §1

LCLC-97TM1 = system: LCLC-97TM1
Outline: as §1

LK-2 = system: LK-2
Outline: as §1

LOU-NH91 = system: LOU-NH91
Outline: as §1

LXF-289 = system: LXF-289
Outline: as §1

NCI-H1650 = system: NCI-H1650
Outline: as §1

NCI-H1651 = system: NCI-H1651
Outline: as §1

NCI-H1793 = system: NCI-H1793
Outline: as §1

NCI-H2347 = system: NCI-H2347
Outline: as §1

NCI-H23 = system: NCI-H23
Outline: as §1

NCI-H2405 = system: NCI-H2405
Outline: as §1

NCI-H520 = system: NCI-H520
Outline: as §1

NCI-H522 = system: NCI-H522
Outline: as §1

NCI-H647 = system: NCI-H647
Outline: as §1

NCI-H838 = system: NCI-H838
Outline: as §1

PC-3 [JPC-3] = system: PC-3 [JPC-3]
Outline: as §1

RERF-LC-KJ = system: RERF-LC-KJ
Outline: as §1

UMC-11 = system: UMC-11
Outline: as §1

Q: For `CCNC(=O)c1noc(-c2cc(C(C)C)c(O)cc2O)c1-c1ccc(CN2CCOCC2)cc1` [Luminespib] + O=C(c1cc(Cc2n[nH]c(=O)c3ccccc23)ccc1F)N1CCN(C(=O)C2CC2)CC1 [Olaparib] (partner 8 µM), which relative viability (201T; first compound 0.002 µM) is on record?
A: 0.883

Q: What about the relative viability (201T; first compound 0.006325 µM) of the same compound?
A: 0.829

Q: What about the relative viability (201T; first compound 0.02 µM) of the same compound?
A: 0.87

Q: And the relative viability (201T; first compound 0.06325 µM)?
A: 0.803

Q: And the relative viability (201T; first compound 0.2 µM)?
A: 0.784

Q: And the relative viability (A-427; first compound 0.002 µM)?
A: 0.782

Q: And the relative viability (A-427; first compound 0.006325 µM)?
A: 0.732

Q: And the relative viability (A-427; first compound 0.02 µM)?
A: 0.716

Q: What about the relative viability (A-427; first compound 0.06325 µM) of the same compound?
A: 0.445

Q: And the relative viability (A-427; first compound 0.2 µM)?
A: 0.251

Q: What about the relative viability (COR-L23; first compound 0.002 µM) of the same compound?
A: 0.371

Q: What about the relative viability (COR-L23; first compound 0.006325 µM) of the same compound?
A: 0.344

Q: What about the relative viability (COR-L23; first compound 0.02 µM) of the same compound?
A: 0.482

Q: And the relative viability (COR-L23; first compound 0.06325 µM)?
A: 0.0712

Q: And the relative viability (COR-L23; first compound 0.2 µM)?
A: 0.0572

Q: What about the relative viability (HARA; first compound 0.002 µM) of the same compound?
A: 0.425

Q: What about the relative viability (HARA; first compound 0.006325 µM) of the same compound?
A: 0.814

Q: And the relative viability (HARA; first compound 0.02 µM)?
A: 0.997

Q: What about the relative viability (HARA; first compound 0.06325 µM) of the same compound?
A: 0.146

Q: What about the relative viability (HARA; first compound 0.2 µM) of the same compound?
A: 0.102

Q: And the relative viability (HCC-78; first compound 0.002 µM)?
A: 0.773

Q: And the relative viability (HCC-78; first compound 0.006325 µM)?
A: 0.785

Q: And the relative viability (HCC-78; first compound 0.02 µM)?
A: 0.723

Q: And the relative viability (HCC-78; first compound 0.06325 µM)?
A: 0.643

Q: What about the relative viability (HCC-78; first compound 0.2 µM) of the same compound?
A: 0.32

Q: What about the relative viability (LCLC-103H; first compound 0.002 µM) of the same compound?
A: 0.76

Q: What about the relative viability (LCLC-103H; first compound 0.006325 µM) of the same compound?
A: 0.73

Q: What about the relative viability (LCLC-103H; first compound 0.02 µM) of the same compound?
A: 0.78

Q: What about the relative viability (LCLC-103H; first compound 0.06325 µM) of the same compound?
A: 0.681

Q: And the relative viability (LCLC-103H; first compound 0.2 µM)?
A: 0.809

Q: And the relative viability (LCLC-97TM1; first compound 0.002 µM)?
A: 0.421

Q: What about the relative viability (LCLC-97TM1; first compound 0.006325 µM) of the same compound?
A: 0.5

Q: What about the relative viability (LCLC-97TM1; first compound 0.06325 µM) of the same compound?
A: 0.401

Q: What about the relative viability (LCLC-97TM1; first compound 0.2 µM) of the same compound?
A: 0.257

Q: What about the relative viability (LK-2; first compound 0.002 µM) of the same compound?
A: 0.884

Q: And the relative viability (LK-2; first compound 0.006325 µM)?
A: 0.89

Q: What about the relative viability (LK-2; first compound 0.02 µM) of the same compound?
A: 0.519

Q: What about the relative viability (LK-2; first compound 0.06325 µM) of the same compound?
A: 0.11

Q: And the relative viability (LK-2; first compound 0.2 µM)?
A: 0.114

Q: What about the relative viability (LOU-NH91; first compound 0.002 µM) of the same compound?
A: 0.967

Q: What about the relative viability (LOU-NH91; first compound 0.006325 µM) of the same compound?
A: 0.89

Q: And the relative viability (LOU-NH91; first compound 0.02 µM)?
A: 0.445

Q: And the relative viability (LOU-NH91; first compound 0.06325 µM)?
A: 0.351

Q: What about the relative viability (LOU-NH91; first compound 0.2 µM) of the same compound?
A: 0.348

Q: What about the relative viability (LXF-289; first compound 0.002 µM) of the same compound?
A: 1.01

Q: What about the relative viability (LXF-289; first compound 0.006325 µM) of the same compound?
A: 1.03

Q: And the relative viability (LXF-289; first compound 0.02 µM)?
A: 1.2

Q: What about the relative viability (LXF-289; first compound 0.06325 µM) of the same compound?
A: 0.99

Q: And the relative viability (LXF-289; first compound 0.2 µM)?
A: 0.805

Q: What about the relative viability (NCI-H1650; first compound 0.002 µM) of the same compound?
A: 0.852

Q: What about the relative viability (NCI-H1650; first compound 0.006325 µM) of the same compound?
A: 0.786

Q: And the relative viability (NCI-H1650; first compound 0.02 µM)?
A: 0.686

Q: What about the relative viability (NCI-H1650; first compound 0.06325 µM) of the same compound?
A: 0.142

Q: And the relative viability (NCI-H1650; first compound 0.2 µM)?
A: 0.137

Q: And the relative viability (NCI-H1651; first compound 0.002 µM)?
A: 0.195

Q: And the relative viability (NCI-H1651; first compound 0.006325 µM)?
A: 0.177

Q: What about the relative viability (NCI-H1651; first compound 0.02 µM) of the same compound?
A: 0.251

Q: What about the relative viability (NCI-H1651; first compound 0.06325 µM) of the same compound?
A: 0.181

Q: What about the relative viability (NCI-H1651; first compound 0.2 µM) of the same compound?
A: 0.165

Q: And the relative viability (NCI-H1793; first compound 0.002 µM)?
A: 0.999

Q: What about the relative viability (NCI-H1793; first compound 0.006325 µM) of the same compound?
A: 0.975

Q: What about the relative viability (NCI-H1793; first compound 0.02 µM) of the same compound?
A: 0.7

Q: What about the relative viability (NCI-H1793; first compound 0.06325 µM) of the same compound?
A: 0.117

Q: What about the relative viability (NCI-H1793; first compound 0.2 µM) of the same compound?
A: 0.167

Q: What about the relative viability (NCI-H2347; first compound 0.002 µM) of the same compound?
A: 0.631

Q: What about the relative viability (NCI-H2347; first compound 0.006325 µM) of the same compound?
A: 0.617

Q: What about the relative viability (NCI-H2347; first compound 0.02 µM) of the same compound?
A: 0.7

Q: What about the relative viability (NCI-H2347; first compound 0.06325 µM) of the same compound?
A: 0.408

Q: What about the relative viability (NCI-H2347; first compound 0.2 µM) of the same compound?
A: 0.296

Q: What about the relative viability (NCI-H23; first compound 0.002 µM) of the same compound?
A: 0.36

Q: And the relative viability (NCI-H23; first compound 0.006325 µM)?
A: 0.333

Q: What about the relative viability (NCI-H23; first compound 0.02 µM) of the same compound?
A: 0.346

Q: And the relative viability (NCI-H23; first compound 0.06325 µM)?
A: 0.102

Q: What about the relative viability (NCI-H23; first compound 0.2 µM) of the same compound?
A: 0.121

Q: What about the relative viability (NCI-H2405; first compound 0.002 µM) of the same compound?
A: 0.948

Q: And the relative viability (NCI-H2405; first compound 0.02 µM)?
A: 0.813

Q: And the relative viability (NCI-H2405; first compound 0.06325 µM)?
A: 0.181

Q: And the relative viability (NCI-H2405; first compound 0.2 µM)?
A: 0.182

Q: And the relative viability (NCI-H520; first compound 0.002 µM)?
A: 0.361

Q: And the relative viability (NCI-H520; first compound 0.006325 µM)?
A: 0.302

Q: What about the relative viability (NCI-H520; first compound 0.02 µM) of the same compound?
A: 0.227

Q: And the relative viability (NCI-H520; first compound 0.06325 µM)?
A: 0.139

Q: What about the relative viability (NCI-H520; first compound 0.2 µM) of the same compound?
A: 0.112

Q: What about the relative viability (NCI-H522; first compound 0.002 µM) of the same compound?
A: 0.757

Q: What about the relative viability (NCI-H522; first compound 0.006325 µM) of the same compound?
A: 0.61

Q: What about the relative viability (NCI-H522; first compound 0.02 µM) of the same compound?
A: 0.624

Q: And the relative viability (NCI-H522; first compound 0.06325 µM)?
A: 0.437

Q: And the relative viability (NCI-H522; first compound 0.2 µM)?
A: 0.4

Q: And the relative viability (NCI-H647; first compound 0.002 µM)?
A: 0.536

Q: What about the relative viability (NCI-H647; first compound 0.006325 µM) of the same compound?
A: 0.577

Q: What about the relative viability (NCI-H647; first compound 0.02 µM) of the same compound?
A: 0.273

Q: What about the relative viability (NCI-H647; first compound 0.06325 µM) of the same compound?
A: 0.0706

Q: And the relative viability (NCI-H647; first compound 0.2 µM)?
A: 0.059

Q: And the relative viability (NCI-H838; first compound 0.002 µM)?
A: 0.772

Q: And the relative viability (NCI-H838; first compound 0.006325 µM)?
A: 0.782

Q: And the relative viability (NCI-H838; first compound 0.02 µM)?
A: 0.723

Q: And the relative viability (NCI-H838; first compound 0.06325 µM)?
A: 0.122

Q: What about the relative viability (NCI-H838; first compound 0.2 µM) of the same compound?
A: 0.129

Q: And the relative viability (PC-3 [JPC-3]; first compound 0.002 µM)?
A: 1.09

Q: What about the relative viability (PC-3 [JPC-3]; first compound 0.006325 µM) of the same compound?
A: 1.04

Q: What about the relative viability (PC-3 [JPC-3]; first compound 0.02 µM) of the same compound?
A: 0.863

Q: What about the relative viability (PC-3 [JPC-3]; first compound 0.06325 µM) of the same compound?
A: 0.392

Q: And the relative viability (PC-3 [JPC-3]; first compound 0.2 µM)?
A: 0.398

Q: What about the relative viability (RERF-LC-KJ; first compound 0.002 µM) of the same compound?
A: 0.857

Q: And the relative viability (RERF-LC-KJ; first compound 0.006325 µM)?
A: 0.934

Q: What about the relative viability (RERF-LC-KJ; first compound 0.02 µM) of the same compound?
A: 0.49

Q: And the relative viability (RERF-LC-KJ; first compound 0.06325 µM)?
A: 0.235

Q: And the relative viability (RERF-LC-KJ; first compound 0.2 µM)?
A: 0.212

Q: And the relative viability (UMC-11; first compound 0.002 µM)?
A: 0.391

Q: What about the relative viability (UMC-11; first compound 0.006325 µM) of the same compound?
A: 0.403

Q: What about the relative viability (UMC-11; first compound 0.02 µM) of the same compound?
A: 0.401

Q: What about the relative viability (UMC-11; first compound 0.06325 µM) of the same compound?
A: 0.205

Q: What about the relative viability (UMC-11; first compound 0.2 µM) of the same compound?
A: 0.149
